By IC50 is commonly meant the concentration that inhibits the measured activity by half.

From patent US9096615B2, “Bridged bicyclic amino thiazine dioxide compounds as inhibitors of beta-secretase and methods of use thereof” (AMGEN INC., priority 2013, dated 2015) come the findings set out here.

Read-outs that look alike come from different tables or passages of the source.

For experiment [1], the system named is Aβ40 in conditioned medium of cells stably expressing Amyloid Precursor Protein (APP). Kind of experiment: In vitro BACE cell-based assay (HEK cell assay, Aβ40 sandwich ELISA). Conditions: Homo sapiens, HEK293. In a few lines:
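IC50 was derived from percent-of-control Aβ40 against concentration, with Aβ40 quantified by time-resolved fluorescence ELISA (pAb40/6E10-biotin, 4 °C incubations). Supernatants were sampled after 24 h of compound exposure (10 points, starting 100 or 10 μM, 0.1% DMSO) of cells stably expressing APP.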

The target in the next experiment is BACE1 (Homo sapiens, UniProt P56817). Kind of experiment: In vitro enzymatic BACE FRET assay. The experiment is classed as biochemical. In a few lines: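 Fluorescence (excitation 488 nm, […]) from cleavage of quenched peptide substrate (50 nM), reaction run 1 h after 1 h enzyme–inhibitor pre-incubation, then neutralised with Tris. Conditions: 0.2 nM enzyme, pH 4.2 acetate 0.05 M, 10% DMSO final, 100 uM genapol.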

The target in another experiment is T1, Cathepsin D (Cat D) (Homo sapiens, UniProt P07339).
T1 construct: made in house; host or cells: CHO cells
Kind of experiment: In vitro enzymatic Cathepsin D (Cat D) FRET assay. Format: biochemical. The conditions noted are these: read-out: CatD IC50. In short, it runs like this:
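Fluorescence (500 nm excitation, 580 nm emission) was measured after Tris quench of a 1 h cleavage of 20 nM quenched peptide substrate. Before that, 9 nM CHO-expressed human Cat D sat with compound for 1 h at pH 3.5 (0.05 M citrate, 5 mM CHAPS, 10% DMSO final).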

In the next experiment the test system is Abeta 40. Kind of experiment: In vivo inhibition of beta-secretase: percent Abeta 40 reduction in CSF and brain. On the set-up: species or system rat. The conditions noted are these: 10 mpk, after 4 hrs. From the text:
In Vivo Inhibition of Beta-Secretase
Several animal models, including mouse, rat, dog, and monkey, may be used to screen for inhibition of beta-secretase activity in vivo following administration of a test compound sample. Animals used in this invention can be wild type, transgenic, or gene knockout animals. For example, the Tg2576 mouse model, prepared and conducted as described in Hsiao et al., 1996, Science 274, 99-102, and other non-transgenic or gene knockout animals are useful to analyze in vivo inhibition of Amyloid beta peptide (Abeta) production in the presence of inhibitory test compounds. Generally, 2 to 18 month old Tg2576 mice, gene knockout mice or non-transgenic animals are administered test compounds formulated in vehicles, such as cyclodextran, phosphate buffers, hydroxypropyl methylcellulose or other suitable vehicles. One to twenty-four hours following the administration of compound, animals are sacrificed, and brains as well as cerebrospinal fluid (CSF) and plasma are removed for analysis of A-beta levels and drug or test compound concentrations (Dovey et al., 2001, Journal of Neurochemistry, 76, 173-181) Beginning at time 0, animals are administered by oral gavage, or other means of delivery such as intravenous injection, an inhibitory test compound of up to 100 mg/kg in a standard, conventional formulation, such as 2% hydroxypropyl methylcellulose, 1% Tween80. A separate group of animals receive 2% hydroxypropyl methylcellulose, 1% Tween80 alone, containing no test compound, and serve as a vehicle-control group. At the end of the test period, animals are sacrificed and brain tissues, plasma or cerebrospinal fluid are collected. Brains are either homogenized in 10 volumes (w/v) of 0.2% diethylamine (DEA) in 50 mM NaCl (Best et al., 2005, Journal of Pharmacology and Experimental Therapeutics, 313, 902-908), or in 10 volumes of 0.5% TritonX-100 in Tris-buffered saline (pH at about 7.6). Homogenates are centrifuged at 355,000 g, 4° C. for 30 minutes. CSF or brain supernatants are then analyzed for the presence of A-beta peptide by specific sandwich ELISA assays based on ECL (Electrochemiluminescence) technology. For example, rat Abeta40 is measured using biotinylated-4G8 (Signet) as a capture antibody and Fab40 (an in-house antibody specific to the C-terminal of Abeta40) as a detection antibody. For example, 4 hours after administration of 30 mg/kg oral dose of the test compound in 2% hydroxypropyl methylcellulose, 1% Tween80 (pH2.2) to 200 g male Sprague Dawley rats, amyloid beta peptide levels are measured for reduction by X % and Y % in cerebrospinal fluid and brain, respectively, when compared to the levels measured in the vehicle-treated or control […].
Actual vehicles used: Oral: 2% HPMC, 1% Tween80, pH 2.2
• IV: 5% EtOH, 45% Propylene glycol in 5% Dextrose
The compounds of the invention may be shown to reduce the formation and/or deposition of amyloid beta peptide in the cerebrospinal fluid (CSF) as well as in the brain of a mouse or rat at either 3 mpk, 10 mpk or 30 mpk (mpk=mg compound per kg weight of the animal) dosing concentrations after 4 hrs.

[2] abbreviates: Aβ40, 24 h incubation, read-out: HEK cell assay IC50.
The mark [3] stands for this setting: read-out: BACE1 FRET assay IC50.
The mark [4] stands for this setting: Abeta 40, rat CSF, read-out: % reduction of rat CSF levels at 10 pmk.
Where [5] appears, read: Abeta 40, rat brain, read-out: % reduction of rat brain levels at 10 mpk.
Where [6] appears, read: average IC50, read-out: BACE1 cell assay IC50.
[7] abbreviates: average IC50, read-out: BACE1 Enzyme assay IC50.

Chain of BACE1 (P56817 46-501, species assumed): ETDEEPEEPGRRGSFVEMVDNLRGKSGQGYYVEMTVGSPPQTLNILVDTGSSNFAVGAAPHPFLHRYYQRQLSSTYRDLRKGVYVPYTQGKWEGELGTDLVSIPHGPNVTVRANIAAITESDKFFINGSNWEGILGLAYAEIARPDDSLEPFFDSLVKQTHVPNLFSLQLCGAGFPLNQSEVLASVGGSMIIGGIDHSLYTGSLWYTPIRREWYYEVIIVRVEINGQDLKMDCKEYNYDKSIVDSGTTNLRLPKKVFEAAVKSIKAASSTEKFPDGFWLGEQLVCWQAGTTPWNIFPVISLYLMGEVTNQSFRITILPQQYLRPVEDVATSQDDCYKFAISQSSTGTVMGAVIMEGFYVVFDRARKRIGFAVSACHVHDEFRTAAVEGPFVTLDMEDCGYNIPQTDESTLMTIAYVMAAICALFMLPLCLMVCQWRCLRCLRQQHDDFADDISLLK
T1 sequence (P07339 65-412, species assumed): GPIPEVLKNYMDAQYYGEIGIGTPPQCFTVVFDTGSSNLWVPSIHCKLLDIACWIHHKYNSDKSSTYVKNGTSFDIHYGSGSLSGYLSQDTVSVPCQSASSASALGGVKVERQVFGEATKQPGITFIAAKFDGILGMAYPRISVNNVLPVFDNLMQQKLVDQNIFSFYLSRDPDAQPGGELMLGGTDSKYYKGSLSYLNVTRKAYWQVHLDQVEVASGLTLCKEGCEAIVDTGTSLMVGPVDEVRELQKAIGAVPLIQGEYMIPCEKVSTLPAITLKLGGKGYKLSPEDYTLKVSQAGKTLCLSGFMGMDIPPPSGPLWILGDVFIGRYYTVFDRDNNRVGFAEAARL

As to `C[C@]1(c2cc(N)ccc2F)N=C(N)[C@@]2(C)CC[C@@H]1S2(=O)=O` [Example 35, (1R,4R,5S)-4-(5-amino-2-fluorophenyl)-1,4-dimethyl-8-thia-3-azabicyclo[3.2.1]oct-2-en-2-amine 8,8-dioxide], the results for the IC50 (in experiment [1] (setting [2]); on BACE1 (setting [3]); on Cathepsin D (Cat D)) were 5.81 µM, 10.1 µM and 287 µM, respectively. Also, the figures for the inhibition in vivo at 10 mg/kg in the experiment on Abeta 40 (setting [4]) and with Abeta 40 (setting [5]) were 52% and 46%, respectively.

For the molecule `C[C@]1(c2cc(NC(=O)c3ncc(Cl)cc3Cl)ccc2F)N=C(N)[C@@]2(CF)CC[C@@H]1S2(=O)=O` [Example 105, N-(3-((1S,2R,5R)-4-amino-5-(fluoromethyl)-2-methyl-8,8-dioxido-8-thia-3-azabicyclo[3.2.1]oct-3-en-2-yl)-4-fluorophenyl)-3,5-dichloro-2-pyridinecarboxamide], the IC50 amounted to 0.004 µM in experiment [1] (setting [6]); 0.002 µM at BACE1 (setting [7]); 926 µM on Cathepsin D (Cat D) (average IC50, first procedure). Besides, the inhibition in vivo at 10 mg/kg in the experiment with Abeta 40 (setting [4]) was 74%; in the experiment with Abeta 40 (setting [5]) it was 71%.

As to `C[C@]1(c2cc(NC(=O)c3ccc(C(F)(F)F)cn3)ccc2F)N=C(N)[C@@]2(CF)CC[C@@H]1S2(=O)=O` [Example 110, N-(3-((1S,2R,5R)-4-amino-5-(fluoromethyl)-2-methyl-8,8-dioxido-8-thia-3-azabicyclo[3.2.1]oct-3-en-2-yl)-4-fluorophenyl)-5-(trifluoromethyl)-2-pyridinecarboxamide], the IC50 in experiment [1] (setting [6]) was determined as 0.005 µM; on BACE1 (setting [7]) it was 0.006 µM; at Cathepsin D (Cat D) (average IC50, first procedure) it was 536 µM. For the same molecule, the inhibition in vivo at 10 mg/kg worked out at 65% in the experiment with Abeta 40 (setting [4]) and 54% in the experiment with Abeta 40 (setting [5]).

As for `C[C@]1(c2cc(Nc3ncnc4cc(C(F)(F)F)cnc34)ccc2F)N=C(N)[C@@]2(CF)CC[C@@H]1S2(=O)=O` [Example 107, N-(3-((1S,2R,5R)-4-amino-5-(fluoromethyl)-2-methyl-8,8-dioxido-8-thia-3-azabicyclo[3.2.1]oct-3-en-2-yl)-4-fluorophenyl)-7-(trifluoromethyl)pyrido[3,2-d]pyrimidin-4-amine], the IC50 in experiment [1] (setting [6]) is 0.018 µM; at BACE1 (setting [7]), 0.01 µM; at Cathepsin D (Cat D) (average IC50, first procedure), 185 µM. The inhibition in vivo at 10 mg/kg with Abeta 40 (setting [4]) came to 53%; in the experiment on Abeta 40 (setting [5]), 43%.

Regarding `C[C@]1(c2cc(Nc3ncnc4cc(Cl)cnc34)ccc2F)N=C(N)[C@@]2(CF)CC[C@@H]1S2(=O)=O` [Example 98, N-(3-((1S,2R,5R)-4-amino-5-(fluoromethyl)-2-methyl-8,8-dioxido-8-thia-3-azabicyclo[3.2.1]oct-3-en-2-yl)-4-fluorophenyl)-7-chloropyrido[3,2-d]pyrimidin-4-amine], the IC50 was 0.015 µM in experiment [1] (setting [6]); 0.005 µM at BACE1 (setting [7]); 286 µM on Cathepsin D (Cat D) (average IC50, first procedure). The inhibition in vivo at 10 mg/kg worked out at 70% in the experiment with Abeta 40 (setting [4]) and 74% in the experiment on Abeta 40 (setting [5]).

On to `Cc1cnc(COc2cnc3c(Nc4ccc(F)c([C@@]5(C)N=C(N)[C@@]6(C)CC[C@@H]5S6(=O)=O)c4)nccc3n2)o1` [Example 146, N-(3-((1S,2R,5R)-4-amino-2,5-dimethyl-8,8-dioxido-8-thia-3-azabicyclo[3.2.1]oct-3-en-2-yl)-4-fluorophenyl)-2-((5-methyl-1,3-oxazol-2-yl)methoxy)pyrido[3,4-b]pyrazin-5-amine], for which the IC50 in experiment [1] (setting [6]) stood at 0.001 µM; on BACE1 (setting [7]) it was 0.001 µM; on Cathepsin D (Cat D) (average IC50, first procedure) it was 417 µM. Moreover, the inhibition in vivo at 10 mg/kg in the experiment with Abeta 40 (setting [4]) stood at 35%; with Abeta 40 (setting [5]), 13%.

With `CC#Cc1ccc(C(=O)Nc2ccc(F)c([C@@]3(C)N=C(N)[C@@]4(C)CC[C@@H]3S4(=O)=O)c2)nc1` [Example 69, N-(3-((1S,2R,5R)-4-amino-2,5-dimethyl-8,8-dioxido-8-thia-3-azabicyclo[3.2.1]oct-3-en-2-yl)-4-fluorophenyl)-5-(1-propyn-1-yl)-2-pyridinecarboxamide], the half-inhibitory concentration (IC50) in experiment [1] (setting [6]) is 0.003 µM; on BACE1 (setting [7]), 0.002 µM; at Cathepsin D (Cat D) (average IC50, first procedure) it was over 400 µM. For the same molecule, the figures for the inhibition in vivo at 10 mg/kg with Abeta 40 (setting [4]) and with Abeta 40 (setting [5]) were 42% and 9%, respectively.

Turning to `Cc1cc(C(F)(F)F)cnc1C(=O)Nc1ccc(F)c([C@@]2(C)N=C(N)[C@@]3(C)CC[C@@H]2S3(=O)=O)c1` [Example 24, N-(3-((1S,2R,5R)-4-Amino-2,5-dimethyl-8,8-dioxido-8-thia-3-azabicyclo[3.2.1]oct-3-en-2-yl)-4-fluorophenyl)-3-methyl-5-(trifluoromethyl)picolinamide], the IC50 stood at 0.001 µM in experiment [1] (setting [2]), 0.005 µM at BACE1 (setting [3]) and 591 µM on Cathepsin D (Cat D). Moreover, the inhibition in vivo at 10 mg/kg amounted to 72% with Abeta 40 (setting [4]) and 62% in the experiment on Abeta 40 (setting [5]).

Turning to `Cc1cc(Cl)cnc1C(=O)Nc1ccc(F)c([C@@]2(C)N=C(N)[C@@]3(C)CC[C@@H]2S3(=O)=O)c1` [Example 22, N-(3-((1S,2R,5R)-4-Amino-2,5-dimethyl-8,8-dioxido-8-thia-3-azabicyclo[3.2.1]oct-3-en-2-yl)-4-fluorophenyl)-5-chloro-3-methylpicolinamide], the IC50 in experiment [1] (setting [2]) is 0.002 µM; at BACE1 (setting [3]) it was 0.002 µM; on Cathepsin D (Cat D), 1740 µM. Also, the inhibition in vivo at 10 mg/kg in the experiment with Abeta 40 (setting [4]) came out at 76%; with Abeta 40 (setting [5]), 66%.

`C[C@]1(c2cc(NC(=O)c3cnc(C(F)F)cn3)ccc2F)N=C(N)[C@@]2(CF)CC[C@@H]1S2(=O)=O` [Example 109, N-(3-((1S,2R,5R)-4-amino-5-(fluoromethyl)-2-methyl-8,8-dioxido-8-thia-3-azabicyclo[3.2.1]oct-3-en-2-yl)-4-fluorophenyl)-5-(difluoromethyl)-2-pyrazinecarboxamide]: the IC50 is 0.007 µM in experiment [1] (setting [6]); 0.017 µM on BACE1 (setting [7]); 1040 µM on Cathepsin D (Cat D) (average IC50, first procedure). The figures for the inhibition in vivo at 10 mg/kg in the experiment on Abeta 40 (setting [4]) and in the experiment on Abeta 40 (setting [5]) were 70% and 57%, respectively.

As to `Cc1cc(C(F)F)cnc1C(=O)Nc1ccc(F)c([C@@]2(C)N=C(N)[C@@]3(CF)CC[C@@H]2S3(=O)=O)c1` [Example 103, N-(3-((1S,2R,5R)-4-amino-5-(fluoromethyl)-2-methyl-8,8-dioxido-8-thia-3-azabicyclo[3.2.1]oct-3-en-2-yl)-4-fluorophenyl)-5-(difluoromethyl)-3-methyl-2-pyridinecarboxamide], the IC50 in experiment [1] (setting [6]) came out at 0.007 µM; at BACE1 (setting [7]), 0.009 µM; at Cathepsin D (Cat D) (average IC50, first procedure) it was 891 µM. For the same molecule, the inhibition in vivo at 10 mg/kg is 62% in the experiment on Abeta 40 (setting [4]) and 58% in the experiment on Abeta 40 (setting [5]).

As to `CCCOc1cnc2c(Nc3ccc(F)c([C@@]4(C)N=C(N)[C@@]5(C)CC[C@@H]4S5(=O)=O)c3)nccc2n1` [Example 144, N-(3-((1S,2R,5R)-4-amino-2,5-dimethyl-8,8-dioxido-8-thia-3-azabicyclo[3.2.1]oct-3-en-2-yl)-4-fluorophenyl)-2-propoxypyrido[3,4-b]pyrazin-5-amine], the IC50 was 0.071 µM in experiment [1] (setting [6]); 0.004 µM on BACE1 (setting [7]); over 400 µM at Cathepsin D (Cat D) (average IC50, first procedure).
